Laboratory results published in patent US4313943A, “7-Chloro-2,3-dihydro-5-phenyl-1-propargyl-1H-1,4-benzodiazepine-2-one, and a pharmaceutical composition thereof” (priority 1972, dated 1982).

Legend:
Type in all cases: in vivo
[1] = Modifications in the electrocorticogram (ECoG) of unanesthetized animals, R index
Description: Twenty-four hours prior to the test, the surface of a test animal's skull was exposed and stainless steel electrodes were screwed through the lamina externa to make contact with the dura matter in the frontal, parietal and occipital regions, on both sides of the median and transverse sutures. The ECoG was recorded on a REEGA MINI HUIT (Alvar Electronic) encephalograph with a transverse circuit, with bi-frontal, bi-parietal and bi-occipital leads and a longitudinal circuit, with fronto-pariental and parieto-occipital leads on both left and right. One track was used to record respiration, with leads from two steel needles placed under the shin, on either side of the thorax.
Some test animals were kept in restraint cases placed in a relatively soundproof room and some were left free to move in metal cases measuring 40×50×30 cm, which were also kept in a relatively quiet environment.
The activity of the test compounds studied was judged on the one hand by the pattern of spontaneous electrogenesis, especially by the relative degree to which the three basic rhythms of the ECoG in the animals were represented; the theta rhythm (4-8 c/sec.), predominant and characteristic of the state of wakefulness in the posterior regions; bursts of rapid spiked waves (alpha rhythm, 9-15 c/sec.) recorded in the course of diffused wakefulness, and slow waves (delta rhythm, 0.5-3 c/sec.) which are absent in a state of wakefulness except in pathological conditions or in the presence of medicinal substances, a rhythm characteristic of slow-wave sleep. The rapid, low-voltage beta rhythm, not very characteristic of the ECoG in the test animals used and primarily superimposed on the other rhythms, was not analyzed.
Possible modifications in cortical reactivity were also investigated, using two types of stimulation, one comprised an auditory stimulus (whistle blasts) and the other a nociceptive stimulus delivered to the cutaneous nerve endings by pinching the dorsal skin with Kocher's clamps.
To the foregoing qualitative analysis, a quantitative analysis concerning the evolution of spontaneous electrogenesis under the influence of test compounds 1 and 4 was added. The activity of the two compounds was judged by variations in an "R" index, defined as the ratio between the theta waking rhythm, slow waves and bursts of rapid spiked waves. Initially, R was evaluated quantitatively on a scale from 0 to 4 and after this initial estimate, variations in the R index were rated on a scale from 0 to 5 as follows:
1. Maintenance of the value calculated in making the reference tracking (basal value) 0 since variation is nil.
2. Reduction in basal values
(a) reduction of basal value by one-half -1.
(b) observed value between 1/2 and 1/5 of basal value -2.
(c) observed value between 1/5 and 1/10 of basal value -3.
(d) observed value between 1/10 and 1/20 of basal value -4.
(e) observed value lower than 1/20 of basal value, reflecting maximum perturbation of spontaneous ECoG and expressing either a pathological condition or a state of slow-wave sleep, with the absence of theta rhythms and the exclusive presence of slow waves and/or bursts of rapid spiked waves -5.
Once the various values were allocated to each animal, the mean of these values were calculated for each experimental period. From these means, calculations were made of the percentages of variation as compared to a theoretical maximum value of -5 for each experimental period. The percentage for each period was calculated every 30 minutes for 7 hours, with a theoretical total of -10 per hour, then between 7 and 48 hours (theoretical total […]) and between the time of administering the test compound and the 48th hour (theoreticaltotal -90). Variations of 10% were not regarded as significant. All dosages were administered intragastrically through the esophageal tube. […]

[2] = Convulsions induced by pentamethylenetetrazol in rats
Description: The method utilized was according to the method published by Everett and Richards (1944) and Banziger (1965). The pentamethylenetetrazol was given subcutaneously (125 mg/kg) and the test compounds were given orally suspended in a 1% carboxymethyl cellulose solution.

[3] = Conditioned emotional response (CER), tone paired with foot shock
Description: Conditioned emotional response (CER) in test animals was conventionally determined by a tone paired with a foot shock which was presented to hungry animals trained to press a lever for intermittent food reinforcement. After a few such pairings, the presence of the tone alone was sufficient to disrupt the lever pressing behavior. CER is considered a model of behavior anxiety in animals. […] Thus, a 1.25 mg/kg os of compounds 1 and 4 respectively produced about a 350 and 630% increase in CER while a 5 mg/kg os of compounds 1 and 4 respectively produced about 920 and 1600% increase.

[4] = Aggressive behavior elicited by foot shock; details: oral
Description: The aggressive behavior of test animals was elicited by a conventional foot shock procedure after administration of Compounds 1 and 4.

[5] = 7.5 mg/kg intragastric, 2 Hours
[6] = 7.5 mg/kg intragastric, 3 Hours
[7] = 7.5 mg/kg intragastric, 4 Hours
[8] = 7.5 mg/kg intragastric, 5 Hours
[9] = 7.5 mg/kg intragastric, 6 Hours
[10] = 7.5 mg/kg intragastric, 7 Hours
[11] = 7.5 mg/kg intragastric, 48 Hours (7-48 h)
[12] = 7.5 mg/kg intragastric, After 48 Hours (0-48 h total)
[13] = 15.0 mg/kg intragastric, 1 Hour
[14] = 15.0 mg/kg intragastric, 2 Hours
[15] = 15.0 mg/kg intragastric, 3 Hours
[16] = 15.0 mg/kg intragastric, 4 Hours
[17] = 15.0 mg/kg intragastric, 5 Hours
[18] = 15.0 mg/kg intragastric, 6 Hours
[19] = 15.0 mg/kg intragastric, 7 Hours
[20] = 15.0 mg/kg intragastric, 48 Hours (7-48 h)
[21] = 15.0 mg/kg intragastric, After 48 Hours (0-48 h total)
[22] = 30.0 mg/kg intragastric, 1 Hour
[23] = 30.0 mg/kg intragastric, 2 Hours
[24] = 30.0 mg/kg intragastric, 3 Hours
[25] = 30.0 mg/kg intragastric, 4 Hours
[26] = 30.0 mg/kg intragastric, 5 Hours
[27] = 30.0 mg/kg intragastric, 6 Hours
[28] = 30.0 mg/kg intragastric, 7 Hours
[29] = 30.0 mg/kg intragastric, 48 Hours (7-48 h)
[30] = 30.0 mg/kg intragastric, After 48 Hours (0-48 h total)

C#CCN1C(=O)CN=C(c2ccccc2)c2cc(Cl)ccc21 [Compound 1, 7-chloro-2,3-dihydro-5-phenyl-1-propargyl-1H-1,4-benzodiazepin-2-one]
duration of effect on spontaneous electrogenesis ([1]; 1.5 mg/kg): 2 h
latency of the effects ([1]; 1.5 mg/kg): 21 min
average duration of effect on spontaneous electrogenesis ([1]; 3.75 mg/kg): 4 h
R index variation, Mean ([1]; 7.5 mg/kg intragastric, 1 Hour): -7.5
R index, % of Variation ([1]; 7.5 mg/kg intragastric, 1 Hour): -50.0%
R index variation, Mean [1, 5]: -6.0
R index, % of Variation [1, 5]: -60.0%
R index variation, Mean [1, 6]: -4.5
R index, % of Variation [1, 6]: -45.0%
R index variation, Mean [1, 7]: -4.0
R index, % of Variation [1, 7]: -40.0%
R index variation, Mean [1, 8]: -3.0
R index, % of Variation [1, 8]: -30.0%
R index variation, Mean [1, 9]: -2.0
R index, % of Variation [1, 9]: -20.0%
R index variation, Mean [1, 10]: -1.5
R index, % of Variation [1, 10]: -15.0%
R index variation, Mean [1, 11]: -0.5
R index, % of Variation [1, 11]: -3.3%
R index variation, Mean [1, 12]: -29.0
R index, % of Variation [1, 12]: -32.2%
R index variation, Mean [1, 13]: -11.5
R index, % of Variation [1, 13]: -76.7%
R index variation, Mean [1, 14]: -7.0
R index, % of Variation [1, 14]: -70.0%
R index variation, Mean [1, 15]: -5.5
R index, % of Variation [1, 15]: -55.0%
R index variation, Mean [1, 16]: -5.5
R index, % of Variation [1, 16]: -55.0%
R index variation, Mean [1, 17]: -4.0
R index, % of Variation [1, 17]: -40.0%
R index variation, Mean [1, 18]: -2.0
R index, % of Variation [1, 18]: -20.0%
R index variation, Mean [1, 19]: -2.0
R index, % of Variation [1, 19]: -20.0%
R index variation, Mean [1, 20]: +1.5
R index, % of Variation [1, 20]: +10.0%
R index variation, Mean [1, 21]: -36.0
R index, % of Variation [1, 21]: -40.0%
Cortical reactivity induced by exteroceptive stimulation ([1]; 30 mg/kg): remained unchanged
R index variation, Mean [1, 22]: -8.66
R index, % of Variation [1, 22]: -57.7%
R index variation, Mean [1, 23]: -6.99
R index, % of Variation [1, 23]: -69.9%
R index variation, Mean [1, 24]: -6.99
R index, % of Variation [1, 24]: -69.9%
R index variation, Mean [1, 25]: -6.33
R index, % of Variation [1, 25]: -63.3%
R index variation, Mean [1, 26]: -4.33
R index, % of Variation [1, 26]: -43.3%
R index variation, Mean [1, 27]: -1.32
R index, % of Variation [1, 27]: -13.2%
R index variation, Mean [1, 28]: -0.99
R index, % of Variation [1, 28]: -9.9%
R index variation, Mean [1, 29]: -1.66
R index, % of Variation [1, 29]: -11.1%
R index variation, Mean [1, 30]: -37.3
R index, % of Variation [1, 30]: -41.4%
duration of effects on spontaneous electrogenesis ([1]; 7.5, 15 and 30 mg/kg): at least 5 hours
% Protected Animals ([2]; 5 mg/kg/os, pentamethylenetetrazol 125 mg/kg s.c.): 10%
% Protected Animals ([2]; 10 mg/kg/os, pentamethylenetetrazol 125 mg/kg s.c.): 50%
% Protected Animals ([2]; 20 mg/kg/os, pentamethylenetetrazol 125 mg/kg s.c.): 80%
ED50 ([2]; Rattus norvegicus, oral, protection against pentamethylenetetrazol, read-out: ED50 (and C.L.) (converted)): 10.6 mg/kg
% Protected Animals ([2]; Time 90 min.): 48%
% Protected Animals ([2]; Time 120 min.): 46%
% Protected Animals ([2]; Time 180 min.): 37%
% Protected Animals ([2]; Time 240 min.): 10%
duration of protection against pentamethylenetetrazol compared with compounds 3 or 4 ([2]; rat, in vivo): protects against pentamethylenetetrazol for longer periods of time than compounds 3 or 4
increase in CER ([3]; 1.25 mg/kg os): ~350%
increase in CER ([3]; 5 mg/kg os): about 920%
activity in antagonizing tone-induced disruption compared with Compound 4 ([3]; in vivo): about twice as active as Compound 4
ED50 [4]: 3.3 mg/kg
